ChEMBL document CHEMBL5055644, “Cysteine derivatives as acetyl lysine mimics to inhibit zinc-dependent histone deacetylases for treating cancer” (Eur J Med Chem, 2021)
Calls of active or inactive are those of the source. No cut-off for these calls is given here.

Columns and labels:
Histone deacetylase = assay: Inhibition of HDAC in human HeLa nuclear extract using Boc-Lys(acetyl)-AMC as fluorogenic substrate measured after 1 hr by flourescence plate reader method; type: subcellular, Nucleus
Histone deacetylase 7 = biological target: T1, Histone deacetylase 7 (Homo sapiens, UniProt Q8WUI4); assay: Inhibition of human N-terminal GST tagged HDAC7 (518 to end residues) expressed in baculovirus infected Sf9 insect cells using Boc-Lys(acetyl)-AMC as fluorogenic substrate measured after 1 hr by flourescence plate reader method
T1 sequence (Q8WUI4 whole entry): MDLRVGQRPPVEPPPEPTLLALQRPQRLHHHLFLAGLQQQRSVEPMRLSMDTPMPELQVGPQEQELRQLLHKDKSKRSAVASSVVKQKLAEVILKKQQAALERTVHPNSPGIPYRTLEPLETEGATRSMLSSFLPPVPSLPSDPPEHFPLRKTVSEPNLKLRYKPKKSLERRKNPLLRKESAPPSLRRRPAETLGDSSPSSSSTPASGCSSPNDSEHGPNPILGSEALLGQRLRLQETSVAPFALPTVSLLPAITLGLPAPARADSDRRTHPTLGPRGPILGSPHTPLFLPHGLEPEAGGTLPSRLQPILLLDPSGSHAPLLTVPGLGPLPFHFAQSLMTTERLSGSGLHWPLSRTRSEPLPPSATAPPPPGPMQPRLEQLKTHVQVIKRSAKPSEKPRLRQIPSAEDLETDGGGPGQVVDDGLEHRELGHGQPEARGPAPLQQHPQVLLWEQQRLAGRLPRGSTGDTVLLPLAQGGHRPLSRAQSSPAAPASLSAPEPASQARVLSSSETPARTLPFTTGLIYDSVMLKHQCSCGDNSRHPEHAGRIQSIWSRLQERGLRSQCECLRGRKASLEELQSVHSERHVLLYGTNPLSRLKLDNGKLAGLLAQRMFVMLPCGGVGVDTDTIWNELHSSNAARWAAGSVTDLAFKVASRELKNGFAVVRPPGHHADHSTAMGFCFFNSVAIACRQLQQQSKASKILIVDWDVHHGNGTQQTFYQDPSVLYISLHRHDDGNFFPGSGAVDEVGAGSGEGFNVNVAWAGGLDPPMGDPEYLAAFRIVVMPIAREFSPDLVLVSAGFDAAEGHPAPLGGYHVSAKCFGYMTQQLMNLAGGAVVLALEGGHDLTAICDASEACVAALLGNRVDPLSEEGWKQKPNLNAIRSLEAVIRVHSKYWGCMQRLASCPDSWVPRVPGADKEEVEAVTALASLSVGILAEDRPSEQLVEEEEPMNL

[1] = biological target: T2, Class 1 histone deacetylase (Homo sapiens) (UniProt Q13547+O15379+Q92769+Q9BY41); assay: Inhibition of class 1 HDAC in human MCF7 cells assessed as increase in histone H4 acetylation at 10 uM measured after 8 hrs by Western blot analysis; type: cell-based
[2] = biological target: T2, Class 1 histone deacetylase (Homo sapiens); assay: Inhibition of class 1 HDAC in human MCF7 cells assessed as increase in histone H3 acetylation at 10 uM measured after 8 hrs by Western blot analysis; type: cell-based
Histone deacetylase 4 = Histone deacetylase 4 (Homo sapiens, UniProt P56524); assay: Inhibition of human HDAC4 using Boc-Lys(acetyl)-AMC as fluorogenic substrate measured after 1 hr by flourescence plate reader method
K562 = assay: cells; type: functional; conditions: Homo sapiens, time 48 hrs
Description: Antiproliferative activity against human K562 cells assessed as inhibition of cell proliferation incubated for 48 hrs by CCK8 assay

A549 = assay: cells; type: functional; conditions: Homo sapiens, time 48 hrs
Description: Antiproliferative activity against human A549 cells assessed as inhibition of cell proliferation incubated for 48 hrs by CCK8 assay

[3] = biological target: T3, Protein deacetylase HDAC6 (Homo sapiens) (UniProt Q9UBN7); assay: Inhibition of HDAC6 in human K562 cells assessed as increase in alpha tubulin acetylation at 10 uM measured after 8 hrs by Western blot analysis; type: cell-based
T3 sequence (whole entry): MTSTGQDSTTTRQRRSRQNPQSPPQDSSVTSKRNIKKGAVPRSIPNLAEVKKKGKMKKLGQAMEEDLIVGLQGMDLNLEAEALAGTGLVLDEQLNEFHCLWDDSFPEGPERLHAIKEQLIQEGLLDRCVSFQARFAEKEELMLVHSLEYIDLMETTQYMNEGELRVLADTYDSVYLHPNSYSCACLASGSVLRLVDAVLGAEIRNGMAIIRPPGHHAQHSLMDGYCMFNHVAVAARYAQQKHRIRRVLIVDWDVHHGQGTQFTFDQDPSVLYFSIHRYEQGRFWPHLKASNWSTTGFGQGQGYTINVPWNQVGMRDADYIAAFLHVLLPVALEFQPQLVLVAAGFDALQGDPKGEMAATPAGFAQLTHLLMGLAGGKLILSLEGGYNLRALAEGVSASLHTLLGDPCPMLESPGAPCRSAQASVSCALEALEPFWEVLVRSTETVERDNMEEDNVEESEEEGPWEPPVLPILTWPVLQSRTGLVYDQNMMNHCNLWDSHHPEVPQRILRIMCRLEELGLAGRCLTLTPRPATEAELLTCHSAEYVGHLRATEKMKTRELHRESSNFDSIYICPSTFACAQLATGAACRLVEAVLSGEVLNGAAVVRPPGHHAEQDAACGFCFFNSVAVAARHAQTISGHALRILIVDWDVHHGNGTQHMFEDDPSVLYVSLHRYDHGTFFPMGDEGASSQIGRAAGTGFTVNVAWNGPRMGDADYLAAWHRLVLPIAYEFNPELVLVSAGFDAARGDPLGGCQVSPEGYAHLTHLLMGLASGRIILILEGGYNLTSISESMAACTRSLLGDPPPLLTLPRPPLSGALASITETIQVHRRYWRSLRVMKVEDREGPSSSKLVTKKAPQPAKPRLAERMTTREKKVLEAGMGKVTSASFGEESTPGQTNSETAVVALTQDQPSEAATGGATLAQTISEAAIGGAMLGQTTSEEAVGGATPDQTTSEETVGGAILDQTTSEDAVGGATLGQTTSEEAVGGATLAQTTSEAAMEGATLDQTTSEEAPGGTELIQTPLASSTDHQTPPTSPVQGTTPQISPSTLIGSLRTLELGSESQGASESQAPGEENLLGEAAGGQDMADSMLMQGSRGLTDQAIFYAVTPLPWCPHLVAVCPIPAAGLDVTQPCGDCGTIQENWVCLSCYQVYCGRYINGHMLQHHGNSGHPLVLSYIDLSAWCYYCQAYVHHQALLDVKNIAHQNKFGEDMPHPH

Histone deacetylase 9 = Histone deacetylase 9 (Homo sapiens, UniProt Q9UKV0); assay: Inhibition of human C-terminal His-tagged HDAC9 (604 to 1066 residues) expressed in baculovirus infected Sf9 insect cells using Boc-Lys(acetyl)-AMC as fluorogenic substrate measured after 1 hr by flourescence plate reader method
[4] = biological target: T3, Protein deacetylase HDAC6 (Homo sapiens); assay: Inhibition of HDAC6 in human MCF7 cells assessed as increase in alpha tubulin acetylation at 10 uM measured after 8 hrs by Western blot analysis; type: cell-based
Histone deacetylase 5 = Histone deacetylase 5 (Homo sapiens, UniProt Q9UQL6); assay: Inhibition of human HDAC5 using Boc-Lys(acetyl)-AMC as fluorogenic substrate measured after 1 hr by flourescence plate reader method
[5] = biological target: T2, Class 1 histone deacetylase (Homo sapiens); assay: Inhibition of class 1 HDAC in human K562 cells assessed as increase in histone H4 acetylation at 10 uM measured after 8 hrs by Western blot analysis; type: cell-based

Histone deacetylase 9, sequence (Q9UKV0 whole entry, the tested form may be a part): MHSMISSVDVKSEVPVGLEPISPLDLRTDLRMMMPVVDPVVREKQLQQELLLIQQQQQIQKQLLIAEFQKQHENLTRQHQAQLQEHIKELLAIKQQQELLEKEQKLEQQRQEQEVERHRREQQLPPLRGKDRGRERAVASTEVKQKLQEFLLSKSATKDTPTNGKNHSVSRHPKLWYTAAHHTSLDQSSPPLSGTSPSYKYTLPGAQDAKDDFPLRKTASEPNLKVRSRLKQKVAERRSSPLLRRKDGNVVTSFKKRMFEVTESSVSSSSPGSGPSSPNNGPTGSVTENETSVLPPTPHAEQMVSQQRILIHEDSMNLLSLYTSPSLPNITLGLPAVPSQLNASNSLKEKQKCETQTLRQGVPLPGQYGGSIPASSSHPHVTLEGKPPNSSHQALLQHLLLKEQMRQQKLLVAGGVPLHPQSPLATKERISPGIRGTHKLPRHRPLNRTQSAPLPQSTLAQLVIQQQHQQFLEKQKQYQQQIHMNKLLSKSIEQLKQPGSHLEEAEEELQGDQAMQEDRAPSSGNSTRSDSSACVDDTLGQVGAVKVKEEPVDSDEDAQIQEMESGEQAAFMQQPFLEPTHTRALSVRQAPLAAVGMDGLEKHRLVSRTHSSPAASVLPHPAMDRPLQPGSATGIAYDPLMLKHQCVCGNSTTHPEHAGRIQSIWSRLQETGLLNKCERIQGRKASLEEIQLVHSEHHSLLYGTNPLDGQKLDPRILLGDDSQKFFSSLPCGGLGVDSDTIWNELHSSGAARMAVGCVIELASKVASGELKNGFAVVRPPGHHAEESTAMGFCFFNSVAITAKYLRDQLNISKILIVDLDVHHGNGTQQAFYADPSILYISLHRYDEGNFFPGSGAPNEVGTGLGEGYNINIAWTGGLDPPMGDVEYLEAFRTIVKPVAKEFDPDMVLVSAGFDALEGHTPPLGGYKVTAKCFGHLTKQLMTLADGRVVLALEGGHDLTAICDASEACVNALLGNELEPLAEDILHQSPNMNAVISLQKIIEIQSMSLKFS
Histone deacetylase 5, sequence (Q9UQL6 whole entry): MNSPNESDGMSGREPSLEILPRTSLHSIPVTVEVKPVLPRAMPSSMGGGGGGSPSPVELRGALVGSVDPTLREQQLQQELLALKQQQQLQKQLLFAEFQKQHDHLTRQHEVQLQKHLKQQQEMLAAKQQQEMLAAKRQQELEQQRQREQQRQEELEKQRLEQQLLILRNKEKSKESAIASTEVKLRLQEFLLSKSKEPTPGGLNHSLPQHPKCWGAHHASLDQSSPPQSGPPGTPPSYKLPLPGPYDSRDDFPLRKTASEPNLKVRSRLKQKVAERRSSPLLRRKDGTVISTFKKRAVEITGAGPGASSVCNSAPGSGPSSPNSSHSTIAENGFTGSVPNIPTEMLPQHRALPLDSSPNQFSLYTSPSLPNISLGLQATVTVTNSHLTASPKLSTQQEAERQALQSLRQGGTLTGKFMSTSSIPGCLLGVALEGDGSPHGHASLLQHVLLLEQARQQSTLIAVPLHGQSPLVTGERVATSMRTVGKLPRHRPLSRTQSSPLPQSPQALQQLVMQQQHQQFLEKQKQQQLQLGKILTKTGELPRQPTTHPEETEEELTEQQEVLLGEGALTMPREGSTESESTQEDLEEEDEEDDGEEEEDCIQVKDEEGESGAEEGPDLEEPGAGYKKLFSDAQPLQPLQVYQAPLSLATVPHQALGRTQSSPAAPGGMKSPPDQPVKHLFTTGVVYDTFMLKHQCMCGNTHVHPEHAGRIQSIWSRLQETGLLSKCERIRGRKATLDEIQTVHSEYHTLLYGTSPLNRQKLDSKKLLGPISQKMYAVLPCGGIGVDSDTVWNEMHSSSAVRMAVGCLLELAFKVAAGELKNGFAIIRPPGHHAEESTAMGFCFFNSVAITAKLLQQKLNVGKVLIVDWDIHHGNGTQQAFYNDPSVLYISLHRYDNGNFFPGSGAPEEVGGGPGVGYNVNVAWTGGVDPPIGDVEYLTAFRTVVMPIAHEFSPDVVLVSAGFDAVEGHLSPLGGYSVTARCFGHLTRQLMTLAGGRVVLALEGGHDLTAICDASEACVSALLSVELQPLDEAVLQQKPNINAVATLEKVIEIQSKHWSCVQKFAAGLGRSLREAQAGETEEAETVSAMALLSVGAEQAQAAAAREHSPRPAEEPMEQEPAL
T2 sequence (O15379 whole entry, looked up): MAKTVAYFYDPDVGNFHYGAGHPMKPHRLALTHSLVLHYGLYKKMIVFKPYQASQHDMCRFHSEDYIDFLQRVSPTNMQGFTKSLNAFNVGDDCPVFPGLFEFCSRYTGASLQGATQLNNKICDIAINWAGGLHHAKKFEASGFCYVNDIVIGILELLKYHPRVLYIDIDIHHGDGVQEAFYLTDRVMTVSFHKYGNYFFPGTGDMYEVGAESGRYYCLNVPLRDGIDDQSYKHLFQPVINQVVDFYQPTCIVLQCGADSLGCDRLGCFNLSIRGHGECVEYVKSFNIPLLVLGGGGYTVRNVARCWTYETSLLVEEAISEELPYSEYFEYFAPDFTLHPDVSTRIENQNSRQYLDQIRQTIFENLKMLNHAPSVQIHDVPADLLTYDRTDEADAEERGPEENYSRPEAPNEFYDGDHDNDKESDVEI
T2 sequence (Q13547 whole entry, looked up): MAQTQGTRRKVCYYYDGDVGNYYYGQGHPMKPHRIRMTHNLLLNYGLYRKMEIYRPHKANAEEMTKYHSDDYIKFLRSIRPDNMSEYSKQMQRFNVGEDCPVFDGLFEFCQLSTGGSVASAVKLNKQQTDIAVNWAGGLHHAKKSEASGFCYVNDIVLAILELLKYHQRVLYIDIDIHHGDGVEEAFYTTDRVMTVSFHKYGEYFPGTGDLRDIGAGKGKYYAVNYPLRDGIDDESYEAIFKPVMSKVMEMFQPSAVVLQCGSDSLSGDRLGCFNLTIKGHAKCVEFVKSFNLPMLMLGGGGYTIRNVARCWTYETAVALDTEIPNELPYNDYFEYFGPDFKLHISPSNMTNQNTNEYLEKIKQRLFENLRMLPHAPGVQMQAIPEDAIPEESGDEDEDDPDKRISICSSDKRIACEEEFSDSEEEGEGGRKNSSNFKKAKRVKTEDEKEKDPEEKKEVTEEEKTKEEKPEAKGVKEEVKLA
T2 sequence (Q92769 whole entry, looked up): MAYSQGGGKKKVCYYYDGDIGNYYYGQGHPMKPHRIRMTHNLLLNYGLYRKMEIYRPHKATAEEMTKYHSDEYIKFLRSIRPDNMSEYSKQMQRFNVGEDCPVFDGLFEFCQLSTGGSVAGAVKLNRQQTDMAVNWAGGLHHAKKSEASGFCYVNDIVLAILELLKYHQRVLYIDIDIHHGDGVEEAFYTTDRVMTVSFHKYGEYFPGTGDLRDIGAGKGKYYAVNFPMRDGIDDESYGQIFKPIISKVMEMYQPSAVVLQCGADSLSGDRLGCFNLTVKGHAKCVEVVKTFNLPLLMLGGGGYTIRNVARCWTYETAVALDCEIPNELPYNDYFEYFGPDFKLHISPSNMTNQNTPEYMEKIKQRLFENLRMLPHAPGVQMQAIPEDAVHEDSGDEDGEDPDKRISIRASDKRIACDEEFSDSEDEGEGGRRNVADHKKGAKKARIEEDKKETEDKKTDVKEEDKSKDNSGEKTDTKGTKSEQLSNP
T2 sequence (Q9BY41 whole entry, looked up): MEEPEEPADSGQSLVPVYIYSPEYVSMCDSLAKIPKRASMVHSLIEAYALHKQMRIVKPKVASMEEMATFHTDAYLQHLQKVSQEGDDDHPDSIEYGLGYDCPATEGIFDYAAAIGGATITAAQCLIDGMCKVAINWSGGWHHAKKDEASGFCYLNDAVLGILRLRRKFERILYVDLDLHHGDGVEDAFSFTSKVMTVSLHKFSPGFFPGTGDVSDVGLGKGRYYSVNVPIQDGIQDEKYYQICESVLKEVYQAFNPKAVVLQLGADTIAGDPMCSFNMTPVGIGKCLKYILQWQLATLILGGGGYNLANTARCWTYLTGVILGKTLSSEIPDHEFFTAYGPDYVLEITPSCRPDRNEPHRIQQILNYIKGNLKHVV
Histone deacetylase 4, sequence (P56524 whole entry): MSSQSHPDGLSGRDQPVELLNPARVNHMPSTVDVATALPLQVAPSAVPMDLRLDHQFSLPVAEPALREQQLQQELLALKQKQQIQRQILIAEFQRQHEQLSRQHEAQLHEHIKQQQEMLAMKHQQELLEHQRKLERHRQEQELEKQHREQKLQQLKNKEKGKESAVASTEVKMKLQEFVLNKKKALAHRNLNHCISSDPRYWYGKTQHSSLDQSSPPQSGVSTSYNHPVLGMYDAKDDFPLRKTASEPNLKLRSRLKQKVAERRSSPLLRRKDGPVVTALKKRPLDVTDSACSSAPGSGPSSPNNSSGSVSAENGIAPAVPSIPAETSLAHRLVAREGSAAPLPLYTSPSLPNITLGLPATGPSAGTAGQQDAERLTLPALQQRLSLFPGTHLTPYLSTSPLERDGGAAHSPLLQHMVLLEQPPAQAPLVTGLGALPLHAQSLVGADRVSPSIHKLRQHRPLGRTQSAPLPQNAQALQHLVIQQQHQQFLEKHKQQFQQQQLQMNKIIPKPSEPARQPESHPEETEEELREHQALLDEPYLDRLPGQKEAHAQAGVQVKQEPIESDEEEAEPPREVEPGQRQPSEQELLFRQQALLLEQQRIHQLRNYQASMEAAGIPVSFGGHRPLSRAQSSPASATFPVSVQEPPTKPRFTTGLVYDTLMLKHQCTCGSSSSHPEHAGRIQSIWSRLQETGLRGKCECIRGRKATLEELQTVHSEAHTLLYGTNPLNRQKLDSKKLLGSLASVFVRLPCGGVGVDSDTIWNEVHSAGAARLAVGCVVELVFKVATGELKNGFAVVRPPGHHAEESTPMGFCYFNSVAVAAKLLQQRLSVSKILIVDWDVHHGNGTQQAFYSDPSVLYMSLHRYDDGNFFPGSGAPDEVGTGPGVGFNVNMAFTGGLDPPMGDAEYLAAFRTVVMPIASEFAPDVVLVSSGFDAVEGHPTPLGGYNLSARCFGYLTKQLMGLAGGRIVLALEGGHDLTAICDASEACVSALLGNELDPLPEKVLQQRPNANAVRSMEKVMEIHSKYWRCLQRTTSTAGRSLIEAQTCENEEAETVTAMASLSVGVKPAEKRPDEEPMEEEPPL

IC50 (Histone deacetylase)	IC50 (Histone deacetylase 7)	inhibition [1]	inhibition [2]	IC50 (Histone deacetylase 4)	GI50 (K562)	GI50 (A549)	inhibition [3]	IC50 (Histone deacetylase 9)	inhibition [4]	IC50 (Histone deacetylase 5)	inhibition [5]	SMILES
72.4 nM	> 200 nM	Active	Active	> 200 nM	2000 nM	5300 nM	Active	> 200 nM	Active	> 200 nM	Active	O=C(CCCSC[C@H](NC(=O)OCc1ccccc1)C(=O)Nc1cccc2ccccc12)NO
75.1 nM	> 200 nM	Active	Active	> 200 nM	1700 nM	3500 nM	Active	> 200 nM	Active	> 200 nM	Active	O=C(CCCSC[C@H](NC(=O)OCc1ccccc1)C(=O)Nc1ccccc1)NO

SMILES	IC50 (Histone deacetylase)	IC50 (Histone deacetylase 7)	inhibition [1]	inhibition [2]	IC50 (Histone deacetylase 4)	GI50 (K562)	GI50 (A549)	inhibition [3]	IC50 (Histone deacetylase 9)	inhibition [4]	IC50 (Histone deacetylase 5)	inhibition [5]
O=C(CCCSC[C@H](NC(=O)c1ccccc1)C(=O)Nc1ccccc1)NO	52.7 nM	> 200 nM	Active	Active	> 200 nM	1400 nM	4700 nM	Active	> 200 nM	Active	> 200 nM	Active
